Assay results published in patent US12589082B2, “Compositions comprising thymoquinone and additional biologically active compounds” (N.S. OILS LTD., priority 2019, dated 2026).

Test system: NO production by LPS-stimulated cultured murine macrophages
Assay: Inhibition of NO production (Griess nitrite assay) in LPS-stimulated cultured murine macrophages
Assay type: cell-based, murine (ICR mice peritoneal macrophages; RAW264.7)
Conditions: for inhibition at 0.269 µg/mL: beta-carotene alone at 0.269 μg/ml
Experimental: The aim of this study was to investigate the effect of different combinations of NS oil and carotenoids on the in vitro production of the inflammatory mediator NO by LPS-stimulated cultured murine macrophages.
Macrophage isolation and cell culture—Peritoneal macrophages were collected from the peritoneal cavity of 6-8 week old male ICR mice (Harlan, Israel) that had been given an intraperitoneal injection of 1.5 ml of thioglycollate broth (4%) 4 days before harvest. […] Peritoneal macrophages and murine macrophage cell line RAW264.7 were cultured RPMI 1640 medium containing 10% FCS, 2 mM L-glutamine; 100 U/ml penicillin; 100 μg/ml streptomycin (Beit-Haemek, Israel) in 96-well plates (1×10^6 cells/well) at 37° C. in 5% CO2 atmosphere. Cells were stimulated with LPS (0.1-1 μg/ml) in the presence or absence of NS oil acid and/or one or more of the following carotenoids: astaxanthin, lutein and beta-Carotene. The following stock solutions of each active agent were used to prepare the various dilutions tested: • Cold-pressed NS oil containing 3% thymoquinone and 1.7% free fatty acids (N.S. Oils, Israel). • Lutein 20% (Lycored Ltd., Israel) • Beta-carotene 30% in vegetable oil (Lycored Ltd., Israel) • Astaxanthin oleoresin extracted from microalgae, containing 10% astaxanthin (Algatech, Israel). • Lycopene (present at a concentration of 6.35% in the commercially-available product known as Lyc-O-Mato, obtained from Lycored Ltd., Israel).
The carotenoids were dissolved in DMSO (to a final concentration of 5 mM). The mixture was vortexed and incubated in a water bath at 37° C. (with shaking) for 10 min and then sonicated in a sonicator bath three times for 15 seconds each time. Using this stock solution, the desired concentrations were prepared by the addition of appropriate volumes thereof to warm culture medium.
Appropriate volumes of DMSO (0.1-0.2%) were added to the control tubes and the percent inhibition of NO production in each test tube was calculated in relation to its control.
NO production assay—NO levels in supernatants of cell cultures were determined by assaying nitrite levels using Griess reagent and sodium nitrite as a standard as described in Green, L. C., Wagner, D. A., Glogowski, J., Skipper, P. L., Wishnok, J. S., and Tannenbaum, S. R. (1982) Anal Biochem. 126: 131-138. […]

Question: How did the inhibition at 0.269 µg/mL (Mus musculus, Macrophage, first study, FIG. 3) turn out when `CC1=C(/C=C/C(C)=C/C=C/C(C)=C/C=C/C=C(C)/C=C/C=C(C)/C=C/C2=C(C)CCCC2(C)C)C(C)(C)CCC1` [beta-carotene] was run?
Answer: Its inhibition at 0.269 µg/mL is < 10%.

Question: What about the inhibition at 0.538 µg/mL (Mus musculus, Macrophage, first study, FIG. 3, beta-carotene alone at 0.538 μg/ml) of the same compound?
Answer: The inhibition at 0.538 µg/mL was < 20%.

Question: What about the inhibition at 0.269 µg/mL (Mus musculus, Macrophage, second study, FIG. 6) of the same compound?
Answer: Its inhibition at 0.269 µg/mL is 3.89%.

Question: How did the inhibition at 0.35 µg/mL (Mus musculus, Macrophage, second study, FIG. 7, lycopene alone at 0.35 μg/ml) turn out when `CC(C)=CCC/C(C)=C/C=C/C(C)=C/C=C/C(C)=C/C=C/C=C(C)/C=C/C=C(C)/C=C/C=C(\C)CCC=C(C)C` [lycopene] was run?
Answer: Its inhibition at 0.35 µg/mL is 13.5%.

Question: Which results are given for `CC1=C[C@H](O)CC(C)(C)[C@H]1/C=C/C(C)=C/C=C/C(C)=C/C=C/C=C(C)/C=C/C=C(C)/C=C/C1=C(C)C[C@@H](O)CC1(C)C` [lutein]?
Answer: inhibition at 0.284 µg/mL (Mus musculus, Macrophage, second study, FIG. 5, lutein alone at 0.284 μg/ml): 6.96%; inhibition of NO production (first study, FIG. 2, lutein alone at 0.284 μg/ml): did not cause any measurable degree of NO inhibition

Question: What does the source list for `C=C(C)[C@@H]1CCC(C)=C[C@H]1c1c(O)cc(CCCCC)cc1O` [CBD, cannabidiol]?
Answer: inhibition of NO production (Example 2 first study, FIG. 8, CBD alone at 0.0075 μg/ml): did not results in a detectable level of NO inhibition; inhibition of NO production (Example 2 second study, FIG. 9 upper, CBD alone at 0.005 μg/ml): measurable inhibition of NO production; inhibition at 0.01 µg/mL (Mus musculus, Macrophage, read-out: inhibition of NO production): < 10%

Question: Which results are given for `CC1=C(/C=C/C(C)=C/C=C/C(C)=C/C=C/C=C(C)/C=C/C=C(C)/C=C/C2=C(C)C(=O)[C@@H](O)CC2(C)C)C(C)(C)C[C@H](O)C1=O` [astaxanthin]?
Answer: inhibition of NO production (Example 1 first study, FIG. 1, astaxanthin alone at 0.298 and 0.596 μg/ml, % of maximal inhibition): 20-25%; inhibition at 0.298 µg/mL (Mus musculus, Macrophage, Example 4, text summary, astaxanthin only, 0.298 μg/ml): ~20%; inhibition at 0.298 µg/mL (Mus musculus, Macrophage, Example 4 comparative, column 0.0015 μg/ml TQ of high-FFA NS oil dilution, astaxanthin 0.298 μg/ml, agent alone or combined as labelled): 19.1%; inhibition at 0.298 µg/mL (Mus musculus, Macrophage, Example 4 comparative, column 0.0030 μg/ml TQ of high-FFA NS oil dilution, astaxanthin 0.298 μg/ml, agent alone or combined as labelled): 21.3%; inhibition at 0.298 µg/mL (Mus musculus, Macrophage, second study, FIG. 4, astaxanthin alone at 0.298 μg/ml): 19.1%
